Patent US20260070945A1, “MACROCYCLIC IMMUNOMODULATORS” (Bristol-Myers Squibb Company, priority 2022, published 2026)
Where a SMILES comes first, the peptide text is derived from it. Bridges are numbered along the chain shown (N, C = ends). [ ]: non-standard residue; d: D form. The star is where a group is joined. ξ: configuration not given here. Phe(4-COOH) = N[C@@H](Cc1ccc(C(=O)O)cc1)C(=O)O; Bip = N[C@@H](Cc1ccc(-c2ccccc2)cc1)C(=O)O; Phe(3-Me) = Cc1cccc(C[C@H](N)C(=O)O)c1; Cha = N[C@@H](CC1CCCCC1)C(=O)O; Cit = NC(=O)NCCC[C@H](N)C(=O)O; Ile(3ξ) = CCC(C)[C@H](N)C(=O)O; Thr(3ξ) = CC(O)[C@H](N)C(=O)O; Carboxymethyl = O=C(O)C*; NMeA = CN[C@@H](C)C(=O)O; Aun = NCCCCCCCCCCC(=O)O; Dab = NCC[C@H](N)C(=O)O; Dap = NC[C@H](N)C(=O)O; AEEA = NCCOCCOCC(=O)O

What follows are compounds tested against T1, PD-1/PD-L1 interaction (PE-labeled human PD-L1-Ig binding to Jurkat cell line over-expressing human PD-1) (Homo sapiens, UniProt Q15116) (assay: Jurkat-PD-1 Cell Binding High-Content Screening Assay (CBA)). Conditions: Jurkat-hPD-1 cells, PE-labeled PD-L1-Ig 20 nM final; read-out: Jurkat HPD1 PDL1 IC50.
T1 construct: expressed in transfected cells; host or cells: Jurkat
T1 sequence (Q15116 25-288): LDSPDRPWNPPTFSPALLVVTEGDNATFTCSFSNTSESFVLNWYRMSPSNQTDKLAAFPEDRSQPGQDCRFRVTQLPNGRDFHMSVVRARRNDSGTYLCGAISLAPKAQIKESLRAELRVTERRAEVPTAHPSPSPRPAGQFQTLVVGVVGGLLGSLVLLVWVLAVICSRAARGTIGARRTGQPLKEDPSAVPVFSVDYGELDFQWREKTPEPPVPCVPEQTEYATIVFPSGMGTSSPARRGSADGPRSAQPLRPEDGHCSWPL
How it was run: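 Read-out: high-content imaging of cell-bound PE fluorescence, with Hoechst 33342 nuclear counterstain after paraformaldehyde fixation. Before labeled ligand (20 nM final, 1 h) was added, compound sat on the cells for 2 h at 37 °C in DMEM/10% FCS.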
Work on `Cc1cccc(C[C@@H]2NC(=O)[C@H](CC(=O)O)NC(=O)[C@H](Cc3ccc(C(=O)O)cc3)NC(=O)[C@H](Cc3ccc(OCC(=O)O)cc3)NC(=O)CSC[C@@H](C(=O)N[C@@H](CCN)C(=O)NCCCCCCCCCCC(=O)O)NC(=O)[C@H](C(C)O)NC(=O)[C@H](C(C)C)NC(=O)[C@H](CC3CCCCC3)NC(=O)[C@H](CCN)NC(=O)[C@@H](CC(C)C)NC(=O)[C@H](C)N(C)C(=O)[C@H](C(C)C)NC(=O)[C@H](Cc3ccc(-c4ccccc4)cc3)NC(=O)[C@H](CC(C)C)NC2=O)c1` (stereo partly drawn) [Example 2323] ({CH2CO}-Y(Carboxymethyl)[Phe(4-COOH)]D[Phe(3-Me)]L[Bip]V[NMeA][dL][Dab][Cha]V[Thr(3ξ)]C[Dab][Aun]-OH; thioether N-14) yielded an IC50 of 25.6 nM. Compound `Cc1cccc(C[C@@H]2NC(=O)[C@H](CC(=O)O)NC(=O)[C@H](Cc3ccc(C(=O)O)cc3)NC(=O)[C@H](Cc3ccc(OCC(=O)O)cc3)NC(=O)CSC[C@@H](C(=O)N[C@@H](CCN)C(=O)NCCCCCCCCCCC(=O)O)NC(=O)[C@H](C(C)O)NC(=O)[C@H](C(C)C)NC(=O)[C@H](CC3CCCCC3)NC(=O)[C@H](CCN)NC(=O)[C@@H](CC(C)C)NC(=O)[C@H](C)N(C)C(=O)[C@H](CCCNC(N)=O)NC(=O)[C@H](Cc3ccc(-c4ccccc4)cc3)NC(=O)[C@H](CC(C)C)NC2=O)c1` (stereo partly drawn) [Example 2324] ({CH2CO}-Y(Carboxymethyl)[Phe(4-COOH)]D[Phe(3-Me)]L[Bip][Cit][NMeA][dL][Dab][Cha]V[Thr(3ξ)]C[Dab][Aun]-OH; thioether N-14) has an IC50 of 12.8 nM. In the case of `Cc1cccc(C[C@@H]2NC(=O)[C@H](CC(=O)O)NC(=O)[C@H](Cc3ccc(C(=O)O)cc3)NC(=O)[C@H](Cc3ccc(OCC(=O)O)cc3)NC(=O)CSC[C@@H](C(=O)NCCOCCOCC(=O)NCCCCCCCCCCC(=O)O)NC(=O)[C@H](C(C)O)NC(=O)[C@H](C(C)C)NC(=O)[C@H](CC3CCCCC3)NC(=O)[C@H](CCN)NC(=O)[C@@H](CC(C)C)NC(=O)[C@H](C)N(C)C(=O)[C@H](C(C)C)NC(=O)[C@H](Cc3ccc(-c4ccccc4)cc3)NC(=O)[C@H](CC(C)C)NC2=O)c1` (stereo partly drawn) [Example 2325] ({CH2CO}-Y(Carboxymethyl)[Phe(4-COOH)]D[Phe(3-Me)]L[Bip]V[NMeA][dL][Dab][Cha]V[Thr(3ξ)]C[AEEA][Aun]-OH; thioether N-14), the IC50 is reported as 30 nM. With `Cc1cccc(C[C@@H]2NC(=O)[C@H](CC(=O)O)NC(=O)[C@H](Cc3ccc(C(=O)O)cc3)NC(=O)[C@H](Cc3ccc(OCC(=O)O)cc3)NC(=O)CSC[C@@H](C(=O)N[C@H](CC(N)=O)C(=O)NCCCCCCCCCCC(=O)O)NC(=O)[C@H](C(C)O)NC(=O)[C@H](C(C)C)NC(=O)[C@H](CC3CCCCC3)NC(=O)[C@H](CCN)NC(=O)[C@@H](CC(C)C)NC(=O)[C@H](C)N(C)C(=O)[C@H](C(C)C)NC(=O)[C@H](Cc3ccc(-c4ccccc4)cc3)NC(=O)[C@H](CC(C)C)NC2=O)c1` (stereo partly drawn) [Example 2326] ({CH2CO}-Y(Carboxymethyl)[Phe(4-COOH)]D[Phe(3-Me)]L[Bip]V[NMeA][dL][Dab][Cha]V[Thr(3ξ)]C[dN][Aun]-OH; thioether N-14) the IC50 was 41.3 nM. `Cc1cccc(C[C@@H]2NC(=O)[C@H](CC(=O)O)NC(=O)[C@H](Cc3ccc(C(=O)O)cc3)NC(=O)[C@H](Cc3ccc(OCC(=O)O)cc3)NC(=O)CSC[C@@H](C(=O)N[C@H](CC(N)=O)C(=O)NCCCCCCCCCCC(=O)O)NC(=O)[C@H](C(C)O)NC(=O)[C@H](C(C)C)NC(=O)[C@H](CC3CCCCC3)NC(=O)[C@H](CCN)NC(=O)[C@@H](CC(C)C)NC(=O)[C@H](C)N(C)C(=O)[C@H](CCCNC(N)=O)NC(=O)[C@H](Cc3ccc(-c4ccccc4)cc3)NC(=O)[C@H](CC(C)C)NC2=O)c1` (stereo partly drawn) [Example 2327] ({CH2CO}-Y(Carboxymethyl)[Phe(4-COOH)]D[Phe(3-Me)]L[Bip][Cit][NMeA][dL][Dab][Cha]V[Thr(3ξ)]C[dN][Aun]-OH; thioether N-14) showed an IC50 of 13 nM. `CCC(C)[C@@H]1NC(=O)[C@H](Cc2ccc(-c3ccccc3)cc2)NC(=O)[C@H](C(C)C)NC(=O)[C@H](Cc2cccc(C)c2)NC(=O)[C@H](CC(=O)O)NC(=O)[C@H](Cc2ccc(OCC(=O)O)cc2)NC(=O)[C@H](C(C)O)NC(=O)CSC[C@@H](C(=O)NCCOCCOCC(=O)NCCCCCCCCCCC(=O)O)NC(=O)[C@H](C(C)O)NC(=O)[C@H](C(C)C)NC(=O)[C@H](CC2CCCCC2)NC(=O)[C@H](CCN)NC(=O)[C@@H](CC(C)C)NC(=O)[C@H](C)N(C)C1=O` (stereo partly drawn) [Example 2328] ({CH2CO}-[Thr(3ξ)]Y(Carboxymethyl)D[Phe(3-Me)]V[Bip][Ile(3ξ)][NMeA][dL][Dab][Cha]V[Thr(3ξ)]C[AEEA][Aun]-OH; thioether N-14) was tested, and the IC50 was 19.5 nM. Work on `Cc1cccc(C[C@@H]2NC(=O)[C@H](CC(=O)O)NC(=O)[C@H](Cc3ccc(C(=O)O)cc3)NC(=O)[C@H](Cc3ccc(OCC(=O)O)cc3)NC(=O)CSC[C@@H](C(=O)NCCCCCCCCCCC(=O)O)NC(=O)[C@H](C(C)O)NC(=O)[C@H](C(C)C)NC(=O)[C@H](CC3CCCCC3)NC(=O)[C@H](CCN)NC(=O)[C@@H](CC(C)C)NC(=O)[C@H](C)N(C)C(=O)[C@H](Cc3ccc(O)cc3)NC(=O)[C@H](Cc3ccc(-c4ccccc4)cc3)NC(=O)[C@H](CC(C)C)NC2=O)c1` (stereo partly drawn) [Example 2329] ({CH2CO}-Y(Carboxymethyl)[Phe(4-COOH)]D[Phe(3-Me)]L[Bip]Y[NMeA][dL][Dab][Cha]V[Thr(3ξ)]C[Aun]-OH; thioether N-14) yielded an IC50 of 195 nM. In the case of `Cc1cccc(C[C@@H]2NC(=O)[C@H](CC(=O)O)NC(=O)[C@H](Cc3ccc(C(=O)O)cc3)NC(=O)[C@H](Cc3ccc(OCC(=O)O)cc3)NC(=O)CSC[C@@H](C(=O)NCCCCCCCCCCC(=O)O)NC(=O)[C@H](C(C)O)NC(=O)[C@H](C(C)C)NC(=O)[C@H](CC3CCCCC3)NC(=O)[C@H](CCN)NC(=O)[C@@H](CC(C)C)NC(=O)[C@H](C)N(C)C(=O)[C@H](CCCNC(N)=O)NC(=O)[C@H](Cc3ccc(-c4ccccc4)cc3)NC(=O)[C@H](CC(C)C)NC2=O)c1` (stereo partly drawn) [Example 2330] ({CH2CO}-Y(Carboxymethyl)[Phe(4-COOH)]D[Phe(3-Me)]L[Bip][Cit][NMeA][dL][Dab][Cha]V[Thr(3ξ)]C[Aun]-OH; thioether N-14), the IC50 is reported as 38.1 nM. `Cc1cccc(C[C@@H]2NC(=O)[C@H](CC(=O)O)NC(=O)[C@H](Cc3ccc(C(=O)O)cc3)NC(=O)[C@H](Cc3ccc(OCC(=O)O)cc3)NC(=O)CSC[C@@H](C(=O)NCCCCCCCCCCC(=O)O)NC(=O)[C@H](C(C)O)NC(=O)[C@H](C(C)C)NC(=O)[C@H](CC3CCCCC3)NC(=O)[C@H](CCN)NC(=O)[C@@H](CC(C)C)NC(=O)[C@H](C)N(C)C(=O)[C@H](Cc3ccc(O)cc3)NC(=O)[C@H](Cc3ccc(-c4ccccc4)cc3)NC(=O)[C@H](Cc3ccc(O)cc3)NC2=O)c1` (stereo partly drawn) [Example 2331] ({CH2CO}-Y(Carboxymethyl)[Phe(4-COOH)]D[Phe(3-Me)]Y[Bip]Y[NMeA][dL][Dab][Cha]V[Thr(3ξ)]C[Aun]-OH; thioether N-14) was tested, and the IC50 was 160 nM. In the case of `Cc1cccc(C[C@@H]2NC(=O)[C@H](CC(=O)O)NC(=O)[C@H](Cc3ccc(C(=O)O)cc3)NC(=O)[C@H](Cc3ccc(OCC(=O)O)cc3)NC(=O)CSC[C@@H](C(=O)NCCCCCCCCCCC(=O)O)NC(=O)[C@H](C(C)O)NC(=O)[C@H](C(C)C)NC(=O)[C@H](CC3CCCCC3)NC(=O)[C@H](CCN)NC(=O)[C@@H](CC(C)C)NC(=O)[C@H](C)N(C)C(=O)[C@H](Cc3ccc(C(=O)O)cc3)NC(=O)[C@H](Cc3ccc(-c4ccccc4)cc3)NC(=O)[C@H](CC(C)C)NC2=O)c1` (stereo partly drawn) [Example 2332] ({CH2CO}-Y(Carboxymethyl)[Phe(4-COOH)]D[Phe(3-Me)]L[Bip][Phe(4-COOH)][NMeA][dL][Dab][Cha]V[Thr(3ξ)]C[Aun]-OH; thioether N-14), the IC50 is reported as 343 nM. In the case of `Cc1cccc(C[C@@H]2NC(=O)[C@H](CC(=O)O)NC(=O)[C@H](Cc3ccc(OCC(=O)O)cc3)NC(=O)[C@H](Cc3ccc(OCC(=O)O)cc3)NC(=O)CSC[C@@H](C(=O)N[C@@H](CN)C(=O)NCCCCCCCCCCC(=O)O)NC(=O)[C@H](C(C)O)NC(=O)[C@H](C(C)C)NC(=O)[C@H](CC3CCCCC3)NC(=O)[C@H](CCN)NC(=O)[C@@H](CC(C)C)NC(=O)[C@H](C)N(C)C(=O)[C@H](C(C)C)NC(=O)[C@H](Cc3ccc(-c4ccccc4)cc3)NC(=O)[C@H](CC(C)C)NC2=O)c1` (stereo partly drawn) [Example 2333] ({CH2CO}-Y(Carboxymethyl)Y(Carboxymethyl)D[Phe(3-Me)]L[Bip]V[NMeA][dL][Dab][Cha]V[Thr(3ξ)]C[Dap][Aun]-OH; thioether N-14), the IC50 is reported as 23.5 nM. With `Cc1cccc(C[C@@H]2NC(=O)[C@H](CC(=O)O)NC(=O)[C@H](Cc3ccc(OCC(=O)O)cc3)NC(=O)[C@H](Cc3ccc(OCC(=O)O)cc3)NC(=O)CSC[C@@H](C(=O)N[C@@H](CN)C(=O)NCCCCCCCCCCC(=O)O)NC(=O)[C@H](C(C)O)NC(=O)[C@H](C(C)C)NC(=O)[C@H](CC3CCCCC3)NC(=O)[C@H](CCN)NC(=O)[C@@H](CC(C)C)NC(=O)[C@H](C)N(C)C(=O)[C@H](CCCNC(N)=O)NC(=O)[C@H](Cc3ccc(-c4ccccc4)cc3)NC(=O)[C@H](CC(C)C)NC2=O)c1` (stereo partly drawn) [Example 2334] ({CH2CO}-Y(Carboxymethyl)Y(Carboxymethyl)D[Phe(3-Me)]L[Bip][Cit][NMeA][dL][Dab][Cha]V[Thr(3ξ)]C[Dap][Aun]-OH; thioether N-14) the IC50 was 22.8 nM. With `Cc1cccc(C[C@@H]2NC(=O)[C@H](CC(=O)O)NC(=O)[C@H](Cc3ccc(C(=O)O)cc3)NC(=O)[C@H](Cc3ccc(OCC(=O)O)cc3)NC(=O)CSC[C@@H](C(=O)N[C@@H](CCN)C(=O)NCCCCCCCCCCC(=O)O)NC(=O)[C@H](C(C)O)NC(=O)[C@H](C(C)C)NC(=O)[C@H](CC3CCCCC3)NC(=O)[C@H](CCN)NC(=O)[C@@H](CC(C)C)NC(=O)[C@H](C)N(C)C(=O)[C@H](Cc3ccc(C(=O)O)cc3)NC(=O)[C@H](Cc3ccc(-c4ccccc4)cc3)NC(=O)[C@H](CC(C)C)NC2=O)c1` (stereo partly drawn) [Example 2335] ({CH2CO}-Y(Carboxymethyl)[Phe(4-COOH)]D[Phe(3-Me)]L[Bip][Phe(4-COOH)][NMeA][dL][Dab][Cha]V[Thr(3ξ)]C[Dab][Aun]-OH; thioether N-14) the IC50 was 47.4 nM.
